Experiments:
Assay type in all cases: binding
[1] = target: T1, SwHKA (hydroxyketoacid aldolase from Sphingomonas wittichii RW1) (Rhizorhabdus wittichii, UniProt A0A9J9HGY6, F210W); assay: X-ray crystal structure, […] A, soaked crystal; conditions: MgCl2 soak; bound in monomer B only; PDB id printed as 7OBU in the text but 7O87 (as F201W-HPA) in the Figure 2 legend
T1 construct: gene Swit_5035; N-terminal His6-tag, E. coli BL21(DE3), 251 residues per monomer, homohexamer (trimer of domain-swapped dimers), divalent metal dependent

[2] = target: T2, SwHKA (hydroxyketoacid aldolase from Sphingomonas wittichii RW1) (Rhizorhabdus wittichii, UniProt A0A9J9HGY6, S116C); assay: nanoDSF melting temperature; conditions: absolute Tm, not a shift; MgCl2 10 mM, hydroxypyruvate 20 mM, Hepes 20 mM pH 7.5
T2 construct: gene Swit_5035; N-terminal His6-tag, E. coli BL21(DE3), 251 residues per monomer, homohexamer (trimer of domain-swapped dimers), divalent metal dependent

[3] = target: T3, SwHKA (hydroxyketoacid aldolase from Sphingomonas wittichii RW1) (Rhizorhabdus wittichii, UniProt A0A9J9HGY6, S116A); assay: X-ray crystal structure; conditions: bound to the active-state metal, distorted geometry
T3 construct: gene Swit_5035; N-terminal His6-tag, E. coli BL21(DE3), 251 residues per monomer, homohexamer (trimer of domain-swapped dimers), divalent metal dependent

[4] = target: T4, SwHKA (hydroxyketoacid aldolase from Sphingomonas wittichii RW1) (Rhizorhabdus wittichii, UniProt A0A9J9HGY6); assay: X-ray crystal structure; conditions: with hydroxypyruvate in the active site; H-bonds to R69 and R120'
T4 construct: gene Swit_5035; N-terminal His6-tag, E. coli BL21(DE3), 251 residues per monomer, homohexamer (trimer of domain-swapped dimers), divalent metal dependent
T4 sequence (A0A9J9HGY6 whole entry, the tested form may be a part): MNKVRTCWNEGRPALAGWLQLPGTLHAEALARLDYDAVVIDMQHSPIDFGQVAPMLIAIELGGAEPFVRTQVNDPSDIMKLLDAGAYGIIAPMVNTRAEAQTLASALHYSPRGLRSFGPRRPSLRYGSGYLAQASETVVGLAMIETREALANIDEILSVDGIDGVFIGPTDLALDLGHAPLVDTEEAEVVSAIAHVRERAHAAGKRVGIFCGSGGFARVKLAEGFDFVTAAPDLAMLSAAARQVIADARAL

T3 sequence (A0A9J9HGY6 whole entry S116A, the tested form may be a part): as the sequence (A0A9J9HGY6 whole entry, the tested form may be a part) above, with S116A counted along it
T2 sequence (A0A9J9HGY6 whole entry S116C, the tested form may be a part): as the sequence (A0A9J9HGY6 whole entry, the tested form may be a part) above, with S116C counted along it
T1 sequence (A0A9J9HGY6 whole entry F210W, the tested form may be a part): as the sequence (A0A9J9HGY6 whole entry, the tested form may be a part) above, with F210W counted along it

Tm [2] [°C] | Compound | X-ray crystal structure, 1.2 A, soaked crystal [1] | X-ray crystal structure [3] | X-ray crystal structure [4]
73 | O=C(O)C(=O)CO [hydroxypyruvate] | crystal structure of variant F210W soaked with MgCl2 and hydroxypyruvate could now be solved | showed a strangely distorted geometry (Figure S13, S116A‐HPA PDBID 7NNK) | –
– | O=C[C@H](O)CO [D-glyceraldehyde] | – | – | Close‐up view of the active site of SwHKA with DGA bound (PDBID 8ADQ)
